This note sets out measurements from PMC8911723, “Design, Synthesis, and Cytotoxic Activity of Novel Natural Arylsulfonamide-Inspired Molecules” (Molecules, 2022).

Series [1] can be described thus: MTT in vitro cytotoxicity assay, MARC145 cells. In kind it is cell-based, African green monkey. The note with it: MARC145 kidney cells (subclone of MA-104); MARC145 African green monkey kidney cell line; MTT assay; triplicate, three independent experiments. An excerpt:
(§1) Pharmacological evaluation: All target carboxamide derivatives derived from natural arylsulfonamides 10a–r were screened for their potential in vitro cytotoxic effects on A875 (human melanoma), HepG2 (human hepatocellular liver carcinoma), and MARC145 (A subclone of African green monkey kidney cell line MA-104) cell lines using the standard MTT assay, with 5-FU (5-fluorouracil) as a positive control. The IC50 value represents the drug concentration required to inhibit cell growth by 50%.
(§2) Bioassays: The in vitro cytotoxicity of the novel carbazole derivatives against human melanoma (A875), human hepatocellular liver carcinoma (HepG2), and a subclone of African green monkey kidney cell line MA-104 (MARC145) cell lines was evaluated using the MTT assay. All data were analyzed with SPSS software, and the 50% inhibitory concentrations (IC50) of each compound for the different cell lines were determined. All assays were performed in triplicate on three independent experiments.

A short description of series [2]: MTT in vitro cytotoxicity assay, A875 cells. In kind it is cell-based. The settings on record: A875 melanoma cells, A875 human melanoma cell line, triplicate, three independent experiments.
Description: as §1, §2

Series [3] can be described thus: MTT in vitro cytotoxicity assay, HepG2 cells. In kind it is cell-based, human. The note with it: HepG2 hepatocellular liver carcinoma cells; HepG2 human hepatocellular liver carcinoma cell line; MTT assay; triplicate, three independent experiments.
Description: as §1, §2

For series [4], the system named is MARC145 (a subclone of African green monkey kidney cell line MA-104). The experiment in a line: MTT in vitro cytotoxicity assay, MARC145 cells. It is filed as cell-based. The settings on record: MARC145 cells; concentration 40 µg/mL; preliminary screening (Figure 4).
Description: as §1, §2

Series [5] relates to HepG2 (human hepatocellular liver carcinoma) cell line. In words: MTT in vitro cytotoxicity assay, HepG2 cells. The note with it: HepG2 cells; concentration 40 µg/mL; preliminary screening (Figure 4). It is filed as cell-based.
Description: as §1, §2

Structures are written as SMILES. Converted amounts (≈) assume the structure as drawn.

As for `O=c1[nH]cc(F)c(=O)[nH]1` [5-FU, 5-fluorouracil, reference compound], the IC50 in series [1] came to 13.1 ± 1.32 µg/mL (≈ 100 µM); in series [2], 11.8 ± 2.03 µg/mL (≈ 90.4 µM); in series [3], 15.1 ± 1.06 µg/mL (≈ 116 µM).

As to `O=C(Nc1ccc(S(=O)(=O)Nc2ccccc2Oc2ccccc2)cc1)c1ccccc1C(F)(F)F` [10b, N-(4-(N-(2-Phenoxyphenyl)sulfamoyl)phenyl)-2-(trifluoromethyl)benzamide], the IC50 in series [1], in series [2] and in series [3] was over 40 µg/mL in each case.

As to `Cc1c(C(=O)Nc2ccc(S(=O)(=O)Nc3ccccc3Oc3ccccc3)cc2)cccc1-c1ccccc1` [10j, 2-Methyl-N-(4-(N-(2-phenoxyphenyl)sulfamoyl)phenyl)-[1,1′-biphenyl]-3-carboxamide], the IC50 in series [1], in series [2] and in series [3] was over 40 µg/mL throughout.

On to `O=C(Nc1ccc(S(=O)(=O)Nc2ccccc2-c2ccccc2)cc1)c1cc(Br)nn1-c1ncccc1Cl` [10e, N-(4-(N-([1,1′-Biphenyl]-2-yl)sulfamoyl)phenyl)-3-bromo-1-(3-chloropyridin-2-yl)-1H-pyrazole-5-carboxamide], for which the melting point lay in the range of 156 to 157 °C. The compound further registered an IC50 in series [1] of over 40 µg/mL. The compound further registered an IC50 in series [2] of over 40 µg/mL. The IC50 in series [3] is over 40 µg/mL.

Compound `Cc1onc(NS(=O)(=O)c2ccc(NC(=O)c3cc(Br)nn3-c3ncccc3Cl)cc2)c1C` [10g, 3-Bromo-1-(3-chloropyridin-2-yl)-N-(4-(N-(4,5-dimethylisoxazol-3-yl)sulfamoyl)phenyl)-1H-pyrazole-5-carboxmide] showed a melting point of 171 to 172 °C. The IC50 in series [1] was over 40 µg/mL. This compound showed an IC50 in series [2] of over 40 µg/mL. This compound also gave an IC50 in series [3] of over 40 µg/mL.

`Cc1onc(NS(=O)(=O)c2ccc(NC(=O)c3cccc(-c4ccccc4)c3C)cc2)c1C` [10k, N-(4-(N-(4,5-Dimethylisoxazol-3-yl)sulfamoyl)phenyl)-2-methyl-[1,1′-biphenyl]-3-carboxamide]: the melting point lay in the range of 156 to 157 °C. In series [1], the IC50 is over 40 µg/mL. Also, the IC50 in series [2] is over 40 µg/mL. This compound displayed an IC50 in series [3] of 34.7 ± 2.94 µg/mL (≈ 75.2 µM).

Take `CC(C(=O)Nc1ccc(S(=O)(=O)Nc2ccccc2C(F)(F)F)cc1)c1ccc2c(c1)[nH]c1ccc(Cl)cc12` (stereo not drawn) [10q, 2-(6-Chloro-9H-carbazol-2-yl)-N-(4-(N-(2-(trifluoromethyl)phenyl)sulfamoyl)phenyl)propanamide]: the melting point lay within 159 to 160 °C. Also, in series [1], half-maximal inhibition (IC50) required 2.95 ± 0.78 µg/mL (≈ 5.16 µM). In addition, the “Inhibitory activity at 40 µg/mL compared with control 5-FU” value in series [4] is “significantly higher activities compared with the control”. Moreover, the IC50 in series [2] is 4.19 ± 0.78 µg/mL (≈ 7.33 µM). This compound also came in with an IC50 in series [3] of 3.55 ± 0.63 µg/mL (≈ 6.21 µM). For the same compound, in series [5], the “Inhibitory activity at 40 µg/mL compared with control 5-FU” value is listed as “significantly higher activities compared with the control”.

Consider `O=C(Nc1ccc(S(=O)(=O)Nc2ccccc2C(F)(F)F)cc1)c1ccccc1-c1ccc(C(F)(F)F)cc1` [10p, 4′-(Trifluoromethyl)-N-(4-(N-(2-(trifluoromethyl)phenyl)sulfamoyl)phenyl)-[1,1′-biphenyl]-2-carboxamide], for which the values for the IC50 in series [1], in series [2] and in series [3] were 8.5 ± 2.55 µg/mL (≈ 15.1 µM), 20.4 ± 3.99 µg/mL (≈ 36.2 µM) and 9.6 ± 0.88 µg/mL (≈ 17 µM), respectively. The “Inhibitory activity at 40 µg/mL compared with control 5-FU” value in series [4] and in series [5] was “significantly higher activities compared with the control” each time.

Turning to `COC(=O)c1ccccc1NC(=O)c1ccccc1NS(=O)(=O)c1ccc(-c2ccccc2)cc1` [NC2, Methyl 2-(2-([1,1′-biphenyl]-4-sulfonamido)benzamido)benzoate], the IC50 in series [1] and in series [2] was over 40 µg/mL throughout.

For the compound `O=C(Nc1ccc(S(=O)(=O)Nc2ccccc2C(F)(F)F)cc1)c1cc(Br)nn1-c1ncccc1Cl` [10h, 3-Bromo-1-(3-chloropyridin-2-yl)-N-(4-(N-(2-(trifluoromethyl)phenyl)sulfamoyl)phenyl)-1H-pyrazole-5-carboxamide], the melting point was 181 to 182 °C. In series [1], it took 6.75 ± 0.89 µg/mL (≈ 11.2 µM) to reach half-maximal inhibition (IC50). For the same compound, inhibition in series [2] was half-maximal at 16.8 ± 1.14 µg/mL (≈ 27.9 µM) (IC50). Further, 14.4 ± 1.89 µg/mL (≈ 23.9 µM) corresponded to half-maximal inhibition in series [3] (IC50).

`O=C(Nc1ccc(S(=O)(=O)Nc2ccccc2-c2ccccc2)cc1)c1ccccc1-c1ccc(C(F)(F)F)cc1` [10m, N-(4-(N-([1,1′-Biphenyl]-2-yl)sulfamoyl)phenyl)-4′-(trifluoromethyl)-[1,1′-biphenyl]-2-carboxamide] had a melting point of 163 to 164 °C. The IC50 in series [1] is over 40 µg/mL. For the same compound, in series [2], the IC50 was over 40 µg/mL. The compound further returned an IC50 in series [3] of over 40 µg/mL.

Turning to `O=C(Nc1ccc(S(=O)(=O)Nc2ccccc2Oc2ccccc2)cc1)c1cc(Br)nn1-c1ncccc1Cl` [10f, 3-Bromo-1-(3-chloropyridin-2-yl)-N-(4-(N-(2-phenoxyphenyl)sulfamoyl)phenyl)-1H-pyrazole-5-carboxamide], the melting point lay within 177 to 178 °C. Further, the IC50 in series [1] was 11.8 ± 2.93 µg/mL (≈ 18.9 µM). This compound also registered an IC50 in series [2] of over 40 µg/mL. The half-maximal inhibitory concentration (IC50) in series [3] was over 40 µg/mL.

`O=C(O)c1ccccc1NS(=O)(=O)c1ccc(-c2ccccc2)cc1` [NC1, 2-([1,1′-Biphenyl]-4-sulfonamido)benzoic acid] came in with a melting point of 205 to 207 °C. The compound further displayed an IC50 in series [1] of 25.8 ± 10.4 µg/mL (≈ 73 µM). In addition, 27.2 ± 5.39 µg/mL (≈ 76.9 µM) corresponded to half-maximal inhibition in series [2] (IC50).

Consider `Cc1c(C(=O)Nc2ccc(S(=O)(=O)Nc3ccccc3C(F)(F)F)cc2)cccc1-c1ccccc1` [10l, 2-Methyl-N-(4-(N-(2-(trifluoromethyl)phenyl)sulfamoyl)phenyl)-[1,1′-biphenyl]-3-carboxamide], for which the concentration for half-maximal inhibition (IC50) in series [1] amounted to 5.62 ± 0.98 µg/mL (≈ 11 µM); in series [2] it was 10.8 ± 2.28 µg/mL (≈ 21.1 µM); in series [3], 9.03 ± 1.49 µg/mL (≈ 17.7 µM). Moreover, the “Inhibitory activity at 40 µg/mL compared with control 5-FU” value in series [4] and in series [5] was “significantly higher activities compared with the control” each time.

The compound `CC(C(=O)Nc1ccc(S(=O)(=O)Nc2ccccc2Oc2ccccc2)cc1)c1ccc2c(c1)[nH]c1ccc(Cl)cc12` (stereo not drawn) [10r, 2-(6-Chloro-9H-carbazol-2-yl)-N-(4-(N-(2-phenoxyphenyl)sulfamoyl)phenyl)propanamide] had a melting point of 166 to 167 °C. Inhibition in series [1] was half-maximal at 5.96 ± 1.33 µg/mL (≈ 10 µM) (IC50). The “Inhibitory activity at 40 µg/mL compared with control 5-FU” value in series [4] is recorded as “significantly higher activities compared with the control”. In series [2], the IC50 came to 15.2 ± 2.4 µg/mL (≈ 25.4 µM). For the same compound, in series [3], the IC50 came to 8.84 ± 1.68 µg/mL (≈ 14.8 µM). For the same compound, in series [5], the “Inhibitory activity at 40 µg/mL compared with control 5-FU” value is given as “significantly higher activities compared with the control”.

Consider `Cc1c(C(=O)Nc2ccc(S(=O)(=O)Nc3ccccc3-c3ccccc3)cc2)cccc1-c1ccccc1` [10i, N-(4-(N-([1,1′-Biphenyl]-2-yl)sulfamoyl)phenyl)-2-methyl-[1,1′-biphenyl]-3-carboxamide], for which the IC50 in series [1], in series [2] and in series [3] was over 40 µg/mL throughout.

As to `O=C(Nc1ccc(S(=O)(=O)Nc2ccccc2Oc2ccccc2)cc1)c1ccccc1-c1ccc(C(F)(F)F)cc1` [10n, N-(4-(N-(2-Phenoxyphenyl)sulfamoyl)phenyl)-4′-(trifluoromethyl)-[1,1′-biphenyl]-2-carboxamide], the melting point was 173 to 174 °C. Besides, in series [1], 22.6 ± 2.78 µg/mL (≈ 38.3 µM) corresponded to half-maximal inhibition (IC50). Further, the IC50 in series [2] is over 40 µg/mL. This compound also gave an IC50 in series [3] of over 40 µg/mL.

As for `O=C(Nc1ccc(S(=O)(=O)Nc2ccccc2-c2ccccc2)cc1)c1ccccc1C(F)(F)F` [10a, N-(4-(N-([1,1′-Biphenyl]-2-yl)sulfamoyl)phenyl)-2-(trifluoromethyl)benzamide], the IC50 is 13.2 ± 2.49 µg/mL (≈ 26.5 µM) in series [1], over 40 µg/mL in series [2] and 22.1 ± 3.99 µg/mL (≈ 44.4 µM) in series [3].

On to `Cc1onc(NS(=O)(=O)c2ccc(NC(=O)c3ccccc3C(F)(F)F)cc2)c1C` [10c, N-(4-(N-(4,5-Dimethylisoxazol-3-yl)sulfamoyl)phenyl)-2-(trifluoromethyl)benzamide], for which the melting point was in the range of 183 to 184 °C. The compound further returned an IC50 in series [1] of over 40 µg/mL. In addition, in series [2], the IC50 was over 40 µg/mL. This compound also displayed an IC50 in series [3] of over 40 µg/mL.

Take `Cc1onc(NS(=O)(=O)c2ccc(NC(=O)c3ccccc3-c3ccc(C(F)(F)F)cc3)cc2)c1C` [10o, N-(4-(N-(4,5-Dimethylisoxazol-3-yl)sulfamoyl)phenyl)-4′-(trifluoromethyl)-[1,1′-biphenyl]-2-carboxamide]: the melting point lay within 199 to 200 °C. This compound also registered an IC50 in series [1] of over 40 µg/mL. Also, in series [2], the IC50 was over 40 µg/mL. In series [3], this compound yielded an IC50 of over 40 µg/mL.

For `O=C(Nc1ccc(S(=O)(=O)Nc2ccccc2C(F)(F)F)cc1)c1ccccc1C(F)(F)F` [10d, 2-(Trifluoromethyl)-N-(4-(N-(2-(trifluoromethyl)phenyl)sulfamoyl)phenyl)benzamide], the results for the IC50 in series [1], in series [2] and in series [3] were 24.9 ± 4.45 µg/mL (≈ 51 µM), over 40 µg/mL and 33.1 ± 2.13 µg/mL (≈ 67.7 µM), respectively.

The term IC50 denotes the concentration at which inhibition is half-maximal. A word on the melting point: it is the temperature, or range, at which the solid turns liquid.
